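Compound exposure: 48 hours, 5 concentrations, 96-well plates. The concentration for full growth arrest is given as TGI.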
Tests used:
Experiment in all cases: DTP human tumour cell line panel, 48 h
DMS 273 small cell lung = system: DMS 273 small cell lung
DMS 114 small cell lung = system: DMS 114 small cell lung
XF 498 CNS = system: XF 498 CNS
LXFL 529 NSCLC = system: LXFL 529 NSCLC
M19-MEL melanoma = system: M19-MEL melanoma
KM20L2 colon = system: KM20L2 colon
RXF-631 renal = system: RXF-631 renal
HOP-18 NSCLC = system: HOP-18 NSCLC
SNB-78 CNS = system: SNB-78 CNS

| Structure (SMILES) | TGI (DMS 273 small cell lung) [µM] | TGI (DMS 114 small cell lung) [µM] | TGI (XF 498 CNS) [µM] | TGI (LXFL 529 NSCLC) [µM] | TGI (M19-MEL melanoma) [µM] | TGI (KM20L2 colon) [µM] | TGI (RXF-631 renal) [µM] | TGI (HOP-18 NSCLC) [µM] | TGI (SNB-78 CNS) [µM] |
| --- | --- | --- | --- | --- | --- | --- | --- | --- | --- |
| C/C=C1\C=C(OC)CN(CCc2c[nH]c3ccccc23)C1 | > 100 | > 100 | > 100 | > 100 | > 100 | > 100 | – | – | – |
| Cc1nc(C(N)=S)sc1C(=O)CC(=O)C(=O)Nc1ccccc1[N+](=O)[O-] | > 100 | > 100 | – | > 100 | > 100 | > 100 | > 100 | > 100 | > 100 |
| COc1ccc(N2C(=O)[C@H]3[C@H]4CC(C(C)(C)C)CC[C@H]4c4c(n(C)c5ccccc45)[C@H]3C2=O)cc1 (stereo partly specified) | > 100 | > 100 | > 100 | > 100 | > 100 | – | – | > 100 | – |
| Cc1ccc(/C(O)=C/c2nc3c(nc2NC24CC5CC(CC(C5)C2)C4)c(=O)oc2ccccc23)cc1 | > 100 | > 100 | > 100 | > 100 | > 100 | > 100 | – | – | – |
| CCOC(=O)N1c2c(ccn2C)-c2ccn(C)c2N1C(=O)OCC | – | – | 30.7 | 30.9 | 80 | 27.8 | 45.8 | – | – |

Reference: PubChem BioAssay (NCI)
